Experimental findings from US20060094765A1, “Use of a sri and vitamin b6 for the treatment of neurological and mental disorders” (Pantarhei Bioscience B.V., priority 2002, published 2006) are described below.

For experiment [1], the system named is chronically, mildly stressed rats. Nature of the experiment: Chronic mild stress (CMS) model of depression, sucrose consumption. The experiment is classed as in vivo, Male Wistar rats. The conditions noted are these: stressed rats, n=8, alone or with pyridoxine 10 mg/kg. From the text: (§1) Chronic mild stress (CMS), a well-validated preclinical model of depression (Willner, 1997, Validity, reliability and utility of the chronic mild stress model of depression: a 10-year review and evaluation. Psychopharmacology, 134, 319-329, […] et al., 2002, Preclinical models: status of basic research in depression, Soc. Biol. Psych., 52, 503-528), was used to study the effects of combined therapy of SRI with pyridoxine on responder rate and the time to achieve a full drug response ('onset of action') as compared to treatment with SRI alone. Citalopram, as an example of a SRI, was combined with either pyridoxine or vehicle and administered to chronically, mildly stressed rats during a 5-week treatment schedule. Consumption of sucrose solution after fasting, which a commonly accepted measure of anhedonia, i.e. inability to experience pleasure, was chosen for readout, since this is a core symptom of human depressive disorders. Male Wistar rats were brought into the laboratory two months before the start of the experiment for acclimatization and training (see below). During this period, the animals were singly housed and were maintained on a 12-h light/dark cycle (lights on at 08.00) at a constant temperature of 22±2° C. and humidity (55±5%). Food pellets (containing an optimal level of 1 mg/kg pyridoxine) and water were freely available, with the exception of the deprivation procedure as described below. During a period of 5 weeks, rats were trained to consume a 1% sucrose solution. Training consisted of ten 1-h baseline tests (twice weekly) in which sucrose was presented, in the home cage, following 14 h of food and water deprivation. Sucrose intake was measured by weighing pre-weighed bottles containing the sucrose solution, at the end of the test. Subsequently, sucrose consumption was monitored, under similar conditions, at weekly intervals throughout the whole experiment. […] Mean values in sucrose consumption during stress and subsequently the 5 weeks of vehicle and drug treatment in control and stressed animals were calculated. […]

Assay in experiment [2]: as above
The format is in vivo, Male Wistar rats. Particulars: unstressed control rats; citalopram 2.5 or 5.0 mg/kg, alone or with pyridoxine 10 mg/kg, i.p. daily, 5 weeks.
Text: as §1

As for `CN(C)CCCC1(c2ccc(F)cc2)OCc2cc(C#N)ccc21` (stereo not drawn) [citalopram], the figures for the “responder rate (rats exhibiting increased sucrose intake)” value in experiment [1] (citalopram 2.5 mg/kg i.p. daily for 5 weeks) and in experiment [1] (citalopram 5.0 mg/kg i.p. daily for 5 weeks) were 50% and 62.5%, respectively. Moreover, the “effect on sucrose intake in control animals” value in experiment [2] was “no significant effect”.
